# Columns and labels:
# [1] = tested on: nociceptive reflex response (tail removal caused by painful heat stimulus); assay: "Tail-Flick" test, analgesic activity; format: in vivo, male Swiss mice; settings: mice
# Experimental: Tests consisting in measuring the in vivo activity of the compounds of the invention on a nociceptive reflex response were performed. In this approach, the latency of the animal's nociceptive reflex response is measured as a pain indicator.
# The analgesic activity was determined by means of the “tail-flick” test in male Swiss mice (Iffa Credo). This test is based on the spontaneous nociceptive reflex of removal of the animal's tail caused by a painful heat stimulus (infrared source). The “tail-flick” test (D'Amour-Smith test, 1941, Pharmacol. Exp. Ther.; 72: 74-79) consists, after administering a product, in placing a mouse's tail at the focal point of the infrared source so as to produce a nociceptive heat stimulus (surface temperature of about 55-60° C.). The mouse's reaction time (RT) (latency between the moment when the light beam is switched on and the moment when the mouse removes its tail) was measured in duplicate at different times ranging from 20 minutes to 120 minutes after administration of the product. The heat intensity is regulated such that this removal reflex is between 0.5 and 3.5 seconds in the control animals, and arbitrarily represents the criterion for minimum analgesia (0%). Two reaction time measurements were taken before administration of the product for each mouse, to establish a baseline measurement time. A maximum time of 8 seconds was chosen as the maximum reaction time so as not to induce tissue damage by burning the animals, and arbitrarily represents the criterion for maximum analgesia (100%). The reaction time is increased by the analgesics relative to a control animal not receiving any treatment. The products were administered subcutaneously and orally at doses of between 1.25 and 30 mg/kg. […]
# The percentage of analgesic activity (% MPE) is determined by the following formula: %MPE=(RTpost-administration−RTpre-administration)*100/(RTmax−RTpre-administration).
compound,measurement,setting,value
"CN1CC[C@]23c4c5ccc(O)c4O[C@H]2C(O[C@@H]2OC(c4nc6n(n4)CCC(O)N6)[C@@H](O)C(O)C2O)C=CC3[C@H]1C5 (stereo partly drawn) [morphin-6-yl 5-C-(5-hydroxy-4,5,6,7-tetrahydro[1,2,4]triazolo[1,5-a]pyrimidin-2-yl)-β-D-xylopyranoside]",melting point,,201 °C
same,ED50,"[1]; Mus musculus, sc, 1 h, subcutaneous, determined 60 minutes after administration",< 1.25 mg/kg
same,duration of the analgesic action,[1]; subcutaneous administration,more than 120 minutes
same,maximum percentage of analgesic activity (% MPE max index),"[1]; subcutaneous, dose of 1.25 mg/kg",80%

# Reference: US8440634B2, “Bicyclic derivatives of morphine-6-glucuronide, preparation method thereof and use of same in therapeutics” (Sanofi, priority 2008, dated 2013)
